Measured values taken from patent US20230027026A1, “FUSED PYRIMIDINE COMPOUNDS, COMPOSITIONS AND MEDICINAL APPLICATIONS THEREOF” (JUBILANT BIOSYS LIMITED, priority 2019, published 2023).

Experiments:
Type in all cases: cell-based
A431 cells = test: Cellular proliferation (Alamar Blue) assay, A431; details: Homo sapiens, A-431; A431 cells, 72 hr, Alamar Blue; read-out: A431 IC50
Method: (§1) Example 3: Cellular Proliferation (Alamar Blue) Assays
(§2) • 1. EGFR(D770_N771insSVD) expressing Ba/F3 stable cell line • 2. EGFR (A767_dupASV) expressing Ba/F3 stable cell line • 3. A431 cells • 4. BTER2 (A775_G776insYVMA) expressing Ba/F3 stable cell line • 5. BTER2 (WT) expressing Ba/F3 stable cell line • 6. BT-474 cells
(§3) • 1. Seed cells at 5000 for A431 and 15,000 cells for Ba/F3 in 100 μL/well in complete media (for A431: DMEM with 10% FBS and for Ba/F3 cells: RPMI with 10% FBS) in 96-well tissue culture plate. Leave outer wells without cells for background measurements. Incubate at 37 degree Celsius in 5% CO2 humidified incubator for 16-18 hours. • 2. Add 0.025 ml of 5× concentration compound dilution or DMSO control. Final compound concentration range is 10-0.0005 μM prepared in 3-fold serial dilutions. Incubate for 72 hr at 37 degree Celsius in […] humidified incubator. • 3. Add 0.0125 mL Alamar Blue™ reagent to each well with multi-channel pipette and tap gently on each side of the plate to mix. Incubate for 3 hours at 37 degree Celsius in […] humidified incubator. • 4. Read plates on fluorescence reader (Tecan Spark Control, Device: Spark, Serial #: 1801006040) at 540 nm excitation, 590 nm emission wavelength. • 5. Data analysis was performed using XLfit 5.5.0.5.

[1] = molecular target: EGFR (A767_dupASV) expressing Ba/F3 stable cell line (Homo sapiens, UniProt P00533, DUP767-769, cells depend on it); test: Cellular proliferation (Alamar Blue) assay, EGFR A767_dupASV Ba/F3; details: EGFR A767_dupASV Ba/F3, 72 hr, read-out: A767 IC50
Method: as §1, §2, §3

[2] = molecular target: EGFR(D770_N771insSVD) expressing Ba/F3 stable cell line (Homo sapiens, UniProt P00533, DUP768-770, cells depend on it); test: Cellular proliferation (Alamar Blue) assay, EGFR D770_N771insSVD Ba/F3; details: EGFR D770_N771insSVD Ba/F3, 72 hr, read-out: D770 IC50
Method: as §1, §2, §3

Chain of EGFR (A767_dupASV) expressing Ba/F3 stable cell line (P00533 with tags, fused parts or gaps DUP767-769): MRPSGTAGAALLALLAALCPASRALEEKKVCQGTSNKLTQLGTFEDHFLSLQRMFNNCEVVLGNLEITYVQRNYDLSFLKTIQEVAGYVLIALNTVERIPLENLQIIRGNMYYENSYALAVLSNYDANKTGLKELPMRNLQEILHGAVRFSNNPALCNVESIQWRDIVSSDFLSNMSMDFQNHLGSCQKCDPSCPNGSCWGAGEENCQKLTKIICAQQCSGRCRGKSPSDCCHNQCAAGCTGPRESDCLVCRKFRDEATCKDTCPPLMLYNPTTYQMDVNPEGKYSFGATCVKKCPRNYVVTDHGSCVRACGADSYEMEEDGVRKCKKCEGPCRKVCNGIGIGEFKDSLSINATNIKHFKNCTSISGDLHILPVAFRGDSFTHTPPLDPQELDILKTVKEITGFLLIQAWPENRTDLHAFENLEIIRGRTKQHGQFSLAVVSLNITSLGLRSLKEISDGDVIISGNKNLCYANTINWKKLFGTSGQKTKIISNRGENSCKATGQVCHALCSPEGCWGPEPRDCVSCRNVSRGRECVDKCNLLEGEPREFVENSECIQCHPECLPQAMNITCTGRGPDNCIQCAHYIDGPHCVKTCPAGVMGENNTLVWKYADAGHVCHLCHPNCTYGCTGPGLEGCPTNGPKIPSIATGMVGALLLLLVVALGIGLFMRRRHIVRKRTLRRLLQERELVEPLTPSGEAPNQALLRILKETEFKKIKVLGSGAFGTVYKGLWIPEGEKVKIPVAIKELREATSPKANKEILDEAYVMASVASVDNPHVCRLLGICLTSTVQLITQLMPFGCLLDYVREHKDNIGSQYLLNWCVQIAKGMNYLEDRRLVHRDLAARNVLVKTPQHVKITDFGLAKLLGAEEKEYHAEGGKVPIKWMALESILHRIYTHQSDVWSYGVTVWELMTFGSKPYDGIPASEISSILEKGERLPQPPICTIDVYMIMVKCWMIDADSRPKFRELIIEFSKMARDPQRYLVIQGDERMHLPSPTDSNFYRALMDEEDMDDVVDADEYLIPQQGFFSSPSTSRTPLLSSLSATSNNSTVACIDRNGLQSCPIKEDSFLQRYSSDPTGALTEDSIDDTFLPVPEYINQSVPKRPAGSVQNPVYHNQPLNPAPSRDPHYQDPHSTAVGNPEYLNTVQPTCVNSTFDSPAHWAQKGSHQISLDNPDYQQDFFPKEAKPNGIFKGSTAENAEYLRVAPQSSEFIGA
Chain of EGFR(D770_N771insSVD) expressing Ba/F3 stable cell line (P00533 with tags, fused parts or gaps DUP768-770): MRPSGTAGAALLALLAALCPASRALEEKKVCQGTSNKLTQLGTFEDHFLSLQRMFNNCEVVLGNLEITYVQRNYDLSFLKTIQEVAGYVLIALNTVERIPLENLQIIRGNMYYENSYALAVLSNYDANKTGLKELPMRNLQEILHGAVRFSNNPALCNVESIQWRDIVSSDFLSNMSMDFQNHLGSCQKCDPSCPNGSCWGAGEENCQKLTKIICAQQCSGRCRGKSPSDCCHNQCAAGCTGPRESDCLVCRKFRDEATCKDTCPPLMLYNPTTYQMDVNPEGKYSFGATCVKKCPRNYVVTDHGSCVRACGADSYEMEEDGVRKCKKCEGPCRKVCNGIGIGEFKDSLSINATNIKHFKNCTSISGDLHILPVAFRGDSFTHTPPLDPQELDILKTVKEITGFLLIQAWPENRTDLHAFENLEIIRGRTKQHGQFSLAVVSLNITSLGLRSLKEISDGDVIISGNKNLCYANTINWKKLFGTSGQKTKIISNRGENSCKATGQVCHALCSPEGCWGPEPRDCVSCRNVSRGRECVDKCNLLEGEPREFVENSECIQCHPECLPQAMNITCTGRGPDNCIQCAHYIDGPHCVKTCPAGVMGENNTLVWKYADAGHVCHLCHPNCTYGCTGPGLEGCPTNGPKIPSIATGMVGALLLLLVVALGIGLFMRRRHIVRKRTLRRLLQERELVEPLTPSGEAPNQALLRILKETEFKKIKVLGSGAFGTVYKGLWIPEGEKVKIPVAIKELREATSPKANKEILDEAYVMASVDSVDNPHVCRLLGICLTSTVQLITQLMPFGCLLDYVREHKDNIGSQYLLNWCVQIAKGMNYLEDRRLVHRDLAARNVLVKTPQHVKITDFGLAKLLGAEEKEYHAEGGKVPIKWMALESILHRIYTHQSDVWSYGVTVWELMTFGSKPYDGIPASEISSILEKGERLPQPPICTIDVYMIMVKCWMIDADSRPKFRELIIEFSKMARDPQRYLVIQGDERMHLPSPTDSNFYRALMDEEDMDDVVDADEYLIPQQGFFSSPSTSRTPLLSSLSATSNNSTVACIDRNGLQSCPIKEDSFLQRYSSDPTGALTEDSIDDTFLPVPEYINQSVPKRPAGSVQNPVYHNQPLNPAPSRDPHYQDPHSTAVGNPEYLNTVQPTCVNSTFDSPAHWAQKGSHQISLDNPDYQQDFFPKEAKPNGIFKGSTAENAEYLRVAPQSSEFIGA

| SMILES | IC50 (A431 cells) [nM] | GI50 [1] [nM] | GI50 [2] [nM] |
| --- | --- | --- | --- |
| CN(C)C/C=C/C(=O)Nc1cccc(N2C(=O)N(Cc3ccccc3)Cc3cnc(Nc4cnn5cccnc45)nc32)c1 [Compound 90, (E)-N-(3-(3-benzyl-2-oxo-7-(pyrazolo[1,5-a]pyrimidin-3-ylamino)-3,4-dihydropyrimido[4,5-d]pyrimidin-1(2H)-yl)phenyl)-4-(dimethylamino)but-2-enamide] | ≥ 10000 | 1150 | 1850 |
| COCCn1cc(Nc2ncc3c(n2)N(c2cccc(NC(=O)/C=C/CN(C)C)c2)C(=O)N(Cc2ccccc2)C3)c(Cl)n1 [Compound 92, (E)-N-(3-(3-benzyl-7-((3-chloro-1-(2-methoxyethyl)-1H-pyrazol-4-yl)amino)-2-oxo-3,4-dihydropyrimido[4,5-d]pyrimidin-1(2H)-yl)phenyl)-4-(dimethylamino)but-2-enamide] | ≥ 10000 | 385 | 228 |
| CN(C)C/C=C/C(=O)Nc1cccc(N2C(=O)N(Cc3ccccc3)Cc3cnc(Nc4cn(CCF)nc4Cl)nc32)c1 [Compound 93, (E)-N-(3-(3-benzyl-7-((3-chloro-1-(2-fluoroethyl)-1H-pyrazol-4-yl)amino)-2-oxo-3,4-dihydropyrimido[4,5-d]pyrimidin-1(2H)-yl)phenyl)-4-(dimethylamino)but-2-enamide] | ≥ 10000 | 108 | 91 |
| CN(C)C/C=C/C(=O)Nc1cccc(N2C(=O)N(Cc3ccccc3)Cc3cnc(Nc4cn(C)nc4C(F)F)nc32)c1 [Compound 94, (E)-N-(3-(3-benzyl-7-((3-(difluoromethyl)-1-methyl-1H-pyrazol-4-yl)amino)-2-oxo-3,4-dihydropyrimido[4,5-d]pyrimidin-1(2H)-yl)phenyl)-4-(dimethylamino)but-2-enamide] | ≥ 10000 | 39 | 43 |
| CN(C)C/C=C/C(=O)Nc1cccc(N2C(=O)N(Cc3ccccc3)Cc3cnc(Nc4ccncc4)nc32)c1 [Compound 96, (E)-N-(3-(3-benzyl-2-oxo-7-(pyridin-4-ylamino)-3,4-dihydropyrimido[4,5-d]pyrimidin-1(2H)-yl)phenyl)-4-(dimethylamino)but-2-enamide] | ≥ 10000 | > 9350 | 4070 |
| CN(C)C/C=C/C(=O)Nc1cccc(N2C(=O)N(Cc3ccccc3)Cc3cnc(Nc4cnn5c4OCCC5)nc32)c1 [Compound 97, (E)-N-(3-(3-benzyl-7-((6,7-dihydro-5H-pyrazolo[5,1-b][1,3]oxazin-3-yl)amino)-2-oxo-3,4-dihydropyrimido[4,5-d]pyrimidin-1(2H)-yl)phenyl)-4-(dimethylamino)but-2-enamide] | ≥ 10000 | 2630 | 2540 |
| CN(C)C/C=C/C(=O)Nc1cccc(N2C(=O)N(Cc3ccccc3)Cc3cnc(Nc4cccc5c4CCN5C4CCN(C)CC4)nc32)c1 [Compound 98, (E)-N-(3-(3-benzyl-7-((1-(1-methylpiperidin-4-yl)indolin-4-yl)amino)-2-oxo-3,4-dihydropyrimido[4,5-d]pyrimidin-1(2H)-yl)phenyl)-4-(dimethylamino)but-2-enamide] | ≥ 10000 | 322 | 138 |
| CN(C)C/C=C/C(=O)Nc1cccc(N2C(=O)N(Cc3ccccc3)Cc3cnc(Nc4ccc5c(ccn5C)c4)nc32)c1 [Compound 99, (E)-N-(3-(3-benzyl-7-((1-methyl-1H-indol-5-yl)amino)-2-oxo-3,4-dihydropyrimido[4,5-d]pyrimidin-1(2H)-yl)phenyl)-4-(dimethylamino)but-2-enamide] | ≥ 10000 | 115 | 145 |
| Cc1cn2cc(Nc3ncc4c(n3)N(c3cccc(NC(=O)/C=C/CN(C)C)c3)C(=O)N(Cc3ccccc3)C4)ccc2n1 [Compound 100, (E)-N-(3-(3-benzyl-7-((2-methylimidazo[1,2-a]pyridin-6-yl)amino)-2-oxo-3,4-dihydropyrimido[4,5-d]pyrimidin-1(2H)-yl)phenyl)-4-(dimethylamino)but-2-enamide] | ≥ 10000 | 2970 | 4810 |

Next, values leading:

| IC50 (A431 cells) [nM] | GI50 [1] [nM] | GI50 [2] [nM] | SMILES |
| --- | --- | --- | --- |
| ≥ 10000 | 1700 | 2390 | Cc1nocc1Nc1ncc2c(n1)N(c1cccc(NC(=O)/C=C/CN(C)C)c1)C(=O)N(Cc1ccccc1)C2 [Compound 60, (E)-N-(3-(3-benzyl-7-((3-methylisoxazol-4-yl)amino)-2-oxo-3,4-dihydropyrimido[4,5-d]pyrimidin-1(2H)-yl)phenyl)-4-(dimethylamino)but-2-enamide] |
| ≥ 10000 | 58 | 105 | CN(C)C/C=C/C(=O)Nc1cccc(N2C(=O)N(Cc3ccc(F)cc3F)Cc3cnc(Nc4cn(C)nc4Cl)nc32)c1 [Compound 61, (E)-N-(3-(7-((3-chloro-1-methyl-1H-pyrazol-4-yl)amino)-3-(2,4-difluorobenzyl)-2-oxo-3,4-dihydropyrimido[4,5-d]pyrimidin-1(2H)-yl)phenyl)-4-(dimethylamino)but-2-enamide] |
| ≥ 10000 | 2260 | 5480 | COc1cc(CN2Cc3cnc(Nc4cn(C)nc4Cl)nc3N(c3cccc(NC(=O)/C=C/CN(C)C)c3)C2=O)ccn1 [Compound 62, (E)-N-(3-(7-((3-chloro-1-methyl-1H-pyrazol-4-yl)amino)-3-((2-methoxypyridin-4-yl)methyl)-2-oxo-3,4-dihydropyrimido[4,5-d]pyrimidin-1(2H)-yl)phenyl)-4-(dimethylamino)but-2-enamide] |
| ≥ 10000 | 532 | 1460 | CN(C)C/C=C/C(=O)N(C)c1cccc(N2C(=O)N(Cc3ccccc3)Cc3cnc(Nc4cn(C)nc4Cl)nc32)c1 [Compound 63, (E)-N-(3-(3-benzyl-7-((3-chloro-1-methyl-1H-pyrazol-4-yl)amino)-2-oxo-3,4-dihydropyrimido[4,5-d]pyrimidin-1(2H)-yl)phenyl)-4-(dimethylamino)-N-methylbut-2-enamide] |
| ≥ 10000 | 809 | 1030 | CN(C)C/C=C/C(=O)Nc1cccc(N2C(=O)N(Cc3ccccc3)Cc3cnc(Nc4cn(C)nc4Cl)cc32)c1 [Compound 64, (E)-N-(3-(3-benzyl-7-((3-chloro-1-methyl-1H-pyrazol-4-yl)amino)-2-oxo-3,4-dihydropyrido[4,3-d]pyrimidin-1(2H)-yl)phenyl)-4-(dimethylamino)but-2-enamide] |
| ≥ 10000 | 336 | 342 | COC/C=C/C(=O)Nc1cccc(N2C(=O)N(Cc3ccccc3)Cc3cnc(Nc4cn(C)nc4Cl)nc32)c1 [Compound 76, (E)-N-(3-(3-benzyl-7-((3-chloro-1-methyl-1H-pyrazol-4-yl)amino)-2-oxo-3,4-dihydropyrimido[4,5-d]pyrimidin-1(2H)-yl)phenyl)-4-methoxybut-2-enamide] |
| ≥ 10000 | ≥ 10000 | 9130 | C=CC(=O)Nc1cc(N2C(=O)N(Cc3ccccc3)Cc3cnc(Nc4cn(C)nc4Cl)nc32)ccc1OC [Compound 77, N-(5-(3-benzyl-7-((3-chloro-1-methyl-1H-pyrazol-4-yl)amino)-2-oxo-3,4-dihydropyrimido[4,5-d]pyrimidin-1(2H)-yl)-2-methoxyphenyl)acrylamide] |
| 4180 | 8370 | 8780 | C=CC(=O)Nc1cc(N2C(=O)N(Cc3ccccc3)Cc3cnc(Nc4cn(C)nc4Cl)nc32)ccc1OC(F)(F)F [Compound 78, N-(5-(3-benzyl-7-((3-chloro-1-methyl-1H-pyrazol-4-yl)amino)-2-oxo-3,4-dihydropyrimido[4,5-d]pyrimidin-1(2H)-yl)-2-(trifluoromethoxy)phenyl)acrylamide] |
| 5440 | 694 | 900 | CN(C)C/C=C/C(=O)Nc1ccc(Cl)c(N2C(=O)N(Cc3ccccc3)Cc3cnc(Nc4cn(C)nc4Cl)nc32)c1 [Compound 86, (E)-N-(3-(3-benzyl-7-((3-chloro-1-methyl-1H-pyrazol-4-yl)amino)-2-oxo-3,4-dihydropyrimido[4,5-d]pyrimidin-1(2H)-yl)-4-chlorophenyl)-4-(dimethylamino)but-2-enamide] |
| > 10000 | 2240 | 1980 | C/C=C/C(=O)Nc1cccc(N2C(=O)N(Cc3ccccc3)Cc3cnc(Nc4cn(C)nc4F)nc32)c1 [Compound 87, (E)-N-(3-(3-benzyl-7-((3-fluoro-1-methyl-1H-pyrazol-4-yl)amino)-2-oxo-3,4-dihydropyrimido[4,5-d]pyrimidin-1(2H)-yl)phenyl)but-2-enamide] |
| 6500 | 106 | 97 | CN(C)C/C=C/C(=O)Nc1cccc(N2C(=O)N(Cc3ccccc3)Cc3cnc(Nc4cn(C)nc4C(F)(F)F)nc32)c1 [Compound 95, (E)-N-(3-(3-benzyl-7-((1-methyl-3-(trifluoromethyl)-1H-pyrazol-4-yl)amino)-2-oxo-3,4-dihydropyrimido[4,5-d]pyrimidin-1(2H)-yl)phenyl)-4-(dimethylamino)but-2-enamide] |
